From ChEMBL document CHEMBL1201862, “PubChem BioAssay data set” (2004)
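Exposure lasted 48 hours, with cells grown in 96-well plates and compounds tested at five concentrations. Abbreviation: GI50, concentration required for 50% inhibition of growth.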 Activity calls are given as the source filed them. Cut-off read from the data, not from the text of the source: active = GI50 up to about 1.1 µM and inactive = higher.

Assays:
Experiment in all cases: growth of human tumour cells (NCI), 48 h
BT-549 = system: BT-549
COLO 205 = system: COLO 205
HCC 2998 = system: HCC 2998
M14 = system: M14
MCF7 = system: MCF7
MDA-MB-231 = system: MDA-MB-231
MDA-MB-435 = system: MDA-MB-435
OVCAR-3 = system: OVCAR-3
RPMI-8226 = system: RPMI-8226
RXF 393 = system: RXF 393
SK-MEL-5 = system: SK-MEL-5
SK-OV-3 = system: SK-OV-3
SN12C = system: SN12C
SW-620 = system: SW-620
T47D = system: T47D
TK-10 = system: TK-10
U-251 = system: U-251
OVCAR-8 = system: OVCAR-8
SNB-75 = system: SNB-75

Row | Compound | GI50 (BT-549) | GI50 (COLO 205) | GI50 (HCC 2998) | GI50 (M14) | GI50 (MCF7) | GI50 (MDA-MB-231) | GI50 (MDA-MB-435) | GI50 (OVCAR-3) | GI50 (RPMI-8226) | GI50 (RXF 393) | GI50 (SK-MEL-5) | GI50 (SK-OV-3) | GI50 (SN12C) | GI50 (SW-620) | GI50 (T47D) | GI50 (TK-10) | GI50 (U-251) | GI50 (OVCAR-8) | GI50 (SNB-75)
1 | Clc1ccccc1-c1nnc2c(-c3ccccc3)nc3ccccc3n12 | > 100 µM (inactive) | > 100 µM (inactive) | > 100 µM (inactive) | > 100 µM (inactive) | 92 µM (inactive) | > 100 µM (inactive) | 52.7 µM (inactive) | > 100 µM (inactive) | > 100 µM (inactive) | 13 µM (inactive) | > 100 µM (inactive) | > 100 µM (inactive) | > 100 µM (inactive) | > 100 µM (inactive) | 5.93 µM (inactive) | > 100 µM (inactive) | > 100 µM (inactive) | – | –
2 | COc1ccc(-c2c(N)n(-c3cc(OC)cc(OC)c3)c(=O)c3cc([N+](=O)[O-])ccc23)cc1 | 19.2 µM (inactive) | > 27.3 µM (inactive) | > 100 µM (inactive) | 32.4 µM (inactive) | 29.3 µM (inactive) | 28.6 µM (inactive) | 20.4 µM (inactive) | 24.4 µM (inactive) | 2.76 µM (inactive) | 11.1 µM (inactive) | 18 µM (inactive) | > 100 µM (inactive) | > 100 µM (inactive) | > 87.7 µM (inactive) | 7.4 µM (inactive) | > 26 µM (inactive) | > 100 µM (inactive) | > 100 µM (inactive) | –
3 | CC1=NN(C(=O)c2ccncc2)C(=O)C1 | > 100 µM (inactive) | > 100 µM (inactive) | > 100 µM (inactive) | > 100 µM (inactive) | > 100 µM (inactive) | 32.2 µM (inactive) | > 100 µM (inactive) | > 100 µM (inactive) | – | > 100 µM (inactive) | > 100 µM (inactive) | > 100 µM (inactive) | 29.2 µM (inactive) | > 100 µM (inactive) | > 100 µM (inactive) | > 100 µM (inactive) | > 100 µM (inactive) | > 100 µM (inactive) | > 100 µM (inactive)
4 | O=c1c2ccc(Cl)cc2oc2c(CNc3ccc(S(=O)(=O)Nc4ncccn4)cc3)cccc12 | > 100 µM (inactive) | > 100 µM (inactive) | > 100 µM (inactive) | > 100 µM (inactive) | > 100 µM (inactive) | > 100 µM (inactive) | > 100 µM (inactive) | > 100 µM (inactive) | > 100 µM (inactive) | – | > 100 µM (inactive) | > 100 µM (inactive) | > 100 µM (inactive) | > 100 µM (inactive) | > 100 µM (inactive) | > 100 µM (inactive) | > 100 µM (inactive) | > 100 µM (inactive) | > 100 µM (inactive)
5 | CCOC(=O)C(C)(C)Oc1ccc(Cl)cc1 [CLOFIBRATE] | > 1000 µM (inactive) | 202 µM (inactive) | 505 µM (inactive) | > 1000 µM (inactive) | 325 µM (inactive) | > 1000 µM (inactive) | 601 µM (inactive) | – | – | 160 µM (inactive) | 147 µM (inactive) | 986 µM (inactive) | 320 µM (inactive) | 614 µM (inactive) | 202 µM (inactive) | > 1000 µM (inactive) | > 1000 µM (inactive) | 63.1 µM (inactive) | 229 µM (inactive)
6 | c1ccc(-c2nn(-c3ccccc3)[n+](-c3ccccc3)n2)cc1 [TETRAZOLIUM RED] | > 50.5 µM (inactive) | – | 1.53 µM (inactive) | 10.7 µM (inactive) | 2.88 µM (inactive) | 20 µM (inactive) | 11.1 µM (inactive) | 0.191 µM (active) | – | 11.6 µM (inactive) | 3.49 µM (inactive) | > 100 µM (inactive) | 9.59 µM (inactive) | 16.1 µM (inactive) | > 100 µM (inactive) | 43 µM (inactive) | 8.97 µM (inactive) | 49.9 µM (inactive) | > 67.6 µM (inactive)
7 | CCC(C)C(C(=O)N/N=C1/SCC(=O)N1c1ccccc1)C(=O)N/N=C1/SCC(=O)N1c1ccccc1 (centres undefined) | > 100 µM (inactive) | > 100 µM (inactive) | > 100 µM (inactive) | 47.1 µM (inactive) | 34.1 µM (inactive) | 28.8 µM (inactive) | 17.9 µM (inactive) | 28.6 µM (inactive) | – | 16.4 µM (inactive) | 22 µM (inactive) | 22.2 µM (inactive) | > 100 µM (inactive) | 41.9 µM (inactive) | > 100 µM (inactive) | > 100 µM (inactive) | 36.8 µM (inactive) | 39.7 µM (inactive) | 44.9 µM (inactive)
8 | COc1ccc(C2SCC(=O)N2c2ccc(-n3c(-c4ccccc4)nc4ccccc4c3=O)cc2)cc1 (centres undefined) | > 100 µM (inactive) | > 100 µM (inactive) | 60.3 µM (inactive) | > 100 µM (inactive) | 98.4 µM (inactive) | > 100 µM (inactive) | > 100 µM (inactive) | > 100 µM (inactive) | > 100 µM (inactive) | – | > 100 µM (inactive) | 73.3 µM (inactive) | > 100 µM (inactive) | > 100 µM (inactive) | 21.6 µM (inactive) | > 100 µM (inactive) | > 100 µM (inactive) | > 100 µM (inactive) | 15.8 µM (inactive)
9 | CCOC(=O)c1nc2ccccc2nc1Oc1cc(OC)c(OC)c(OC)c1 | > 100 µM (inactive) | > 100 µM (inactive) | > 100 µM (inactive) | > 100 µM (inactive) | > 100 µM (inactive) | 35 µM (inactive) | > 100 µM (inactive) | > 100 µM (inactive) | > 100 µM (inactive) | – | > 100 µM (inactive) | – | > 100 µM (inactive) | > 100 µM (inactive) | > 100 µM (inactive) | 51.2 µM (inactive) | 32.6 µM (inactive) | > 100 µM (inactive) | 44.3 µM (inactive)
10 | CCOn1c(C2(CC3CCN(C(=O)c4ccccc4)CC3)OCCO2)cc2ccccc21 | 19.4 µM (inactive) | 16.4 µM (inactive) | – | 16.7 µM (inactive) | 14.8 µM (inactive) | 15.5 µM (inactive) | 14.3 µM (inactive) | 16.4 µM (inactive) | 8.51 µM (inactive) | 17.4 µM (inactive) | 11.9 µM (inactive) | 19.3 µM (inactive) | 17.2 µM (inactive) | 15.8 µM (inactive) | 18.9 µM (inactive) | 12.2 µM (inactive) | 16.3 µM (inactive) | 14.3 µM (inactive) | 16.5 µM (inactive)
11 | CC(=O)OC1(C)N=NC2(CCCCC2)O1 (centres undefined) | > 100 µM (inactive) | > 100 µM (inactive) | – | > 100 µM (inactive) | > 100 µM (inactive) | > 100 µM (inactive) | > 100 µM (inactive) | > 100 µM (inactive) | > 100 µM (inactive) | > 100 µM (inactive) | > 100 µM (inactive) | > 100 µM (inactive) | > 100 µM (inactive) | > 100 µM (inactive) | > 100 µM (inactive) | > 100 µM (inactive) | > 100 µM (inactive) | > 100 µM (inactive) | > 100 µM (inactive)
